# Results as given in BindingDB's records for patent US20240270732 (Chengdu Biobel Biotechnology Co., 2024).
# Biological target: T1, Receptor-interacting serine/threonine-protein kinase 1 (Homo sapiens, UniProt Q13546)
# T1 sequence (Q13546 whole entry): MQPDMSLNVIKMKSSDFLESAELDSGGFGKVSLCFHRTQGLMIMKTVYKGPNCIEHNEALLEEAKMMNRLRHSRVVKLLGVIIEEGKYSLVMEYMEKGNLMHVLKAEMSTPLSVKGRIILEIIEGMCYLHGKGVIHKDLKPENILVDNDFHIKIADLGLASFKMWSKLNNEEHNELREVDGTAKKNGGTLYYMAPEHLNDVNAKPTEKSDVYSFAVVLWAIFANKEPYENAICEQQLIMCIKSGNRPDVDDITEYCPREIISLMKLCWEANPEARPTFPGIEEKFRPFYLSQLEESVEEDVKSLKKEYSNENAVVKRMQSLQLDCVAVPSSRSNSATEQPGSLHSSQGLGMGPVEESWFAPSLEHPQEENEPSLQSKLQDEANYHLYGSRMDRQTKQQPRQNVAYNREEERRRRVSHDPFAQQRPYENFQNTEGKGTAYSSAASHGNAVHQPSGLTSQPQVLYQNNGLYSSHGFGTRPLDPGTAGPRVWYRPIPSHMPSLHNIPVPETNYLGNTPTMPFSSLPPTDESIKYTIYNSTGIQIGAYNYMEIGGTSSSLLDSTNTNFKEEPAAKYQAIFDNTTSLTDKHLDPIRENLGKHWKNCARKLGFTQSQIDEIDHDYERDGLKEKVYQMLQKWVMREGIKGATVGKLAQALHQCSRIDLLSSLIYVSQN
# Assay: Inhibitory Activity Assay
# Outline: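 Compounds were titrated 22-point, 1:1.5 from 2 μM top concentration, in 50 mM Hepes pH 7.5, 50 mM NaCl, 30 mM MgCl2, 1 mM DTT, 0.02% CHAPS, 0.5 mg/mL BSA. After the kinase reaction, ADP-Glo reagent was added for 1 h at room temperature, then detection solution for 30 min, and luminescence was read.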
row,Compound,IC50
1,"C[C@@H]1Oc2ccc(C#CCN3CCN(CC#Cc4ccc5c(c4)N(C)C(=O)[C@@H](NC(=O)c4n[nH]c(Cc6ccccc6)n4)[C@H](C)O5)CC3)cc2N(C)C(=O)[C@H]1NC(=O)c1n[nH]c(Cc2ccccc2)n1 [US20240270732, Compound I-19]",62.3 nM
2,"C[C@H]1Oc2ccc(C#Cc3ccncc3)cc2N(C)C(=O)[C@H]1NC(=O)c1n[nH]c(Cc2ccccc2)n1 [US20240270732, Compound I-109]",4.26 nM
3,"C#CCN1CCN(CC#Cc2ccc3c(c2)N(C)C(=O)[C@@H](NC(=O)c2n[nH]c(Cc4ccccc4)n2)CO3)CC1 [US20240270732, Compound I-10]",3.21 nM
4,"COCCOCCOCCOCCOCC#Cc1ccc2c(c1)N(C)C(=O)[C@@H](NC(=O)c1n[nH]c(Cc3ccccc3)n1)[C@@H](C)O2 [US20240270732, Compound I-99]",2.39 nM
5,"C#CCN1CCN(CC#Cc2ccc3c(c2)N(C)C(=O)[C@@H](NC(=O)c2cc(Cc4ccccc4)on2)[C@@H](C)O3)CC1 [US20240270732, Compound I-45]",14.2 nM
6,"C#CCN1CCN(CC#Cc2ccc3c(c2)N(C)C(=O)[C@@H](NC(=O)c2n[nH]c(Cc4ccccc4)n2)[C@@H](C)O3)CC1 [US20240270732, Compound I-14]",4.79 nM
7,"CN1C(=O)[C@@H](NC(=O)c2n[nH]c(Cc3ccccc3)n2)COc2ccc(C#CCN3CCN(CC#Cc4ccc5c(c4)N(C)C(=O)[C@@H](NC(=O)c4ncn(Cc6ccccc6)n4)CO5)CC3)cc21 [US20240270732, Compound I-13]",3.22 nM
